Experiments:
[1] = test system: methicillin-sensitive Staphylococcus aureus (MSSA) strain MB2985; conditions: due to binding of the antibiotic; cited from earlier work
[2] = test system: E. faecalis CL 4877 (VanB); experiment: Strain antibiotic susceptibility phenotype (MIC interpretive standards); format: cell-based
Excerpt: (§1) The test panel currently includes eight enterococci and 13 staphylococci, which are selected based upon their antibiotic susceptibility profiles. The methicillin-sensitive Staphylococcus aureus (MSSA) strain MB2985 (Smith isolate) is used to assesses the potential for serum protein binding of the compounds. The paired Gram-negative strains ASP #49 (envA−) and ASP #50 (envA+) (M. Salvatore/N. Lee) are included to judge membrane effects. Table 1 presents a detailed description of the strains included in the panel, including some of the sources of the strains of bacteria.

[3] = test system: E. faecalis CL 5244 (VanB); experiment: as above; format: cell-based
Excerpt: as §1

E. faecalis MB2864 = experiment: as above; format: cell-based
Excerpt: as §1

[4] = test system: E. faecium CL 4931 (VanA); experiment: as above; format: cell-based
Excerpt: as §1

[5] = test system: E. faecium CL 5053 (VanA); experiment: as above; format: cell-based
Excerpt: as §1

[6] = test system: E. faecium CL 5242 (VanA); experiment: as above; format: cell-based
Excerpt: as §1

E. faecium RLA1 = experiment: as above; format: cell-based
Excerpt: as §1

[7] = test system: E. gallinarum CL 4886 (VanC); experiment: as above; format: cell-based
Excerpt: as §1

MRCNS (S. epi.) CL 3069 = experiment: as above; format: cell-based
Excerpt: as §1

MRCNS (S. haem.) CL 171 = experiment: as above; format: cell-based
Excerpt: as §1

MRCNS (S. haem.) CL 202 = experiment: as above; format: cell-based
Excerpt: as §1

MRCNS (S. hom.) CL 227 = experiment: as above; format: cell-based
Excerpt: as §1

MRCNS (S. hom.) CL 546 = experiment: as above; format: cell-based
Excerpt: as §1

MRSA CL 3033 = experiment: as above; format: cell-based, Staphylococcus aureus
Excerpt: as §1

MRSA COL = experiment: as above; format: cell-based, Staphylococcus aureus
Excerpt: as §1

MSSA MB2985 = experiment: as above; format: cell-based, Staphylococcus aureus
Excerpt: as §1

VISA/MRSA CL 5705 = experiment: as above; format: cell-based, S. aureus; conditions: VISA/MRSA CL 5705 (Mu 3)
Excerpt: as §1

VISA/MRSA CL 5706 = experiment: as above; format: cell-based, S. aureus; conditions: VISA/MRSA CL 5706 (Mu 50)
Excerpt: as §1

CCSC1=C(C(=O)O)N2C(=O)[C@H]([C@@H](C)O)[C@H]2S1 [Schering 29482]
activity in the presence of Human Serum Albumin or Fraction V [1]: reduced activity

CN[C@H](CC(C)C)C(=O)N[C@H]1C(=O)N[C@@H](CC(N)=O)C(=O)N[C@H]2C(=O)N[C@H]3C(=O)N[C@H](C(=O)N[C@H](C(=O)O)c4cc(O)cc(O)c4-c4cc3ccc4O)[C@H](O)c3ccc(c(Cl)c3)Oc3cc2cc(c3O[C@@H]2O[C@H](CO)[C@@H](O)[C@H](O)[C@H]2O[C@H]2C[C@](C)(N)[C@H](O)[C@H](C)O2)Oc2ccc(cc2Cl)[C@H]1O [Van, vancomycin]
Phenotype Van [2]: R (≧32) | Phenotype Van [3]: R (≧32) | Phenotype Van (E. faecalis MB2864): S (≦4) | Phenotype Van [4]: R (≧32) | Phenotype Van [5]: R (≧32) | Phenotype Van [6]: R (≧32) | Phenotype Van (E. faecium RLA1): S (≦4) | Phenotype Van [7]: I (8-16) | Phenotype Van (MRCNS (S. epi.) CL 3069): S (≦4) | Phenotype Van (MRCNS (S. haem.) CL 171): S (≦4) | Phenotype Van (MRCNS (S. haem.) CL 202): S (≦4) | Phenotype Van (MRCNS (S. hom.) CL 227): S (≦4) | Phenotype Van (MRCNS (S. hom.) CL 546): S (≦4) | Phenotype Van (MRSA CL 3033): S (≦4) | Phenotype Van (MRSA COL): S (≦4) | Phenotype Van (MSSA MB2985): S (≦4) | Phenotype Van (VISA/MRSA CL 5705): S (≦4) | Phenotype Van (VISA/MRSA CL 5706): I (8-16)

CC1(C)S[C@@H]2[C@H](NC(=O)[C@H](N)c3ccccc3)C(=O)N2[C@H]1C(=O)O [Amp, ampicillin]
Phenotype Amp [2]: S (≦8) | Phenotype Amp [3]: S (≦8) | Phenotype Amp (E. faecalis MB2864): S (≦8) | Phenotype Amp [4]: R (≧16) | Phenotype Amp [5]: R (≧16) | Phenotype Amp [6]: R (≧16) | Phenotype Amp (E. faecium RLA1): R (≧16) | Phenotype Amp [7]: S (≦8) | Phenotype Amp (MRSA CL 3033): R (≧0.5) | Phenotype Amp (MRSA COL): R (≧0.5) | Phenotype Amp (MSSA MB2985): S (≦0.25) | Phenotype Amp (VISA/MRSA CL 5705): R (≧0.5) | Phenotype Amp (VISA/MRSA CL 5706): R (≧0.5)

gentamicin
Phenotype Gent [2]: R (>500) | Phenotype Gent [3]: S (≦500) | Phenotype Gent (E. faecalis MB2864): S (≦500) | Phenotype Gent [4]: R (>500) | Phenotype Gent [5]: R (>500) | Phenotype Gent [6]: R (>500) | Phenotype Gent (E. faecium RLA1): S (≦500) | Phenotype Gent [7]: R (>500) | Phenotype Gent (MRSA COL): S (≦4) | Phenotype Gent (MSSA MB2985): S (≦4) | Phenotype Gent (VISA/MRSA CL 5705): R (≧16) | Phenotype Gent (VISA/MRSA CL 5706): R (≧16)

C[C@@H](O)[C@H]1C(=O)N2C(C(=O)O)=C(SCCN=CN)C[C@H]12 [Ipm, imipenem]
Phenotype Ipm (MRCNS (S. epi.) CL 3069): R (≧16) | Phenotype Ipm (MRCNS (S. haem.) CL 171): R (≧16) | Phenotype Ipm (MRCNS (S. haem.) CL 202): R (≧16) | Phenotype Ipm (MRCNS (S. hom.) CL 227): R (≧16) | Phenotype Ipm (MRCNS (S. hom.) CL 546): R (≧16) | Phenotype Ipm (MRSA CL 3033): R (≧16) | Phenotype Ipm (MRSA COL): R (≧16) | Phenotype Ipm (MSSA MB2985): S (≦4) | Phenotype Ipm (VISA/MRSA CL 5705): R (≧16) | Phenotype Ipm (VISA/MRSA CL 5706): R (≧16)

— US20020045574A1, “Glycopeptide antibacterial compounds and methods of using same” (priority 2000, published 2002)
